The subject of data set [1] is mouse neuroblastoma cell line neuro-2a. Nature of the data set: Activity on neuro-2a, cells with outgrown neurites. It counts as cell-based. The procedure, abridged:
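Mouse neuro-2a cells in DMEM with FCS exposed to compounds for 24 h (up to 6 concentrations, triplicate runs), glutaraldehyde-fixed and methylene blue-stained. Proportion of cells bearing a neurite at least twice the cell's long diameter counted microscopically over ≥200 cells.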

Data set [2] deals with human neuroblastoma cell line GOTO. In words: Activity on cell line GOTO (simple method). It counts as cell-based. The conditions noted are these: Table 2 GOTO Run No. 1; 10 μg/ml; control 8.4. As for the experimental part:
The biological activities in vitro of the compounds of formula (I) on cells of the nervous system were tested. The cells tested were human neuroblastoma cell line GOTO [see Sekiguchi, M., Oota, T., Sakakibara, K., Inui, N. & Fujii, G., Japan. J. Exp. Med., 49, 67-83 (1979)], and neuroblastoma cell line NB-1 [see Miyake, S., Shimo, Y., Kitamura, T., Nojyo, Y., Nakamura, T., Imkashuku, S. and Abe, T., The Autonomic Nervous System, 10, 115-120 (1973)], and mouse neuroblastoma cell line neuro-2a (Dainippon Pharmaceutical Co., Ltd.) which have been established as the cells of the nervous system. The above neuve cells were grown in an incubator at 37° C. in the presence of 5% carbon dioxide gas exponentially, and then cultivated for a certain period of time together with the compounds of formula (I).
A culture medium [composed of 45% of RPMI 1640 medium, 45% modified Eagle's medium (MEM) and 10% of fetal calf serum (FCS) and containing penicillin G sodium (100 units/ml) and streptomycin sulfate (100 microgram/ml)] containing neurobalstoma cell line GOTO in the logarithmic growth period was poured in an amount of 2 ml each into polystyrene dishes (35 mm; made by Corning Co.) so that the cell concentration was 2 to 6×10^4 cells per dish, and the cells were cultured for 1 to 2 days in a carbon dioxide gas incubator containing 5% of carbon dioxide gas in air at 37° C. Then, the culture fluid was removed, and 2 ml of a fresh serum-free culture fluid (consisting of 50% of RPMI medium and 50% of MEM medium and containing penicillin G sodium and streptomycin sulfate in the same amounts as above) was added. At the same time, a presterilized PBS solution (phosphate buffered saline) of each of the test compounds in various concentrations was added to each of the dishes. After culturing for 24 hours, the number of living cells was counted. Furthermore, the culture was photographed, and from the photos, the number and length of neurites per cell were measured. The numer of living cells was counted for 3 to 6 dishes by resistance to staining with erythrosine dye. The number and length of the neurites were measured with regard to 6 photos (more than 200 cells per photo).
As a simple method of evaluation, the number of cells have neurites with a length equal to, or larger than, the long diameter of the cell was divided by the total number of cells.

The next data set relates to mice. Nature of the data set: Acute toxicity, mouse. It counts as in vivo. The conditions noted are these: 24 hours; for Number of dead animals/number of test animals: Table 7, 1000 mg/kg p.o.; for Presumed LD50: Table 7, p.o. The procedure: The acute toxicity of the compounds of the invention was examined by the following method.
Male ddy-strain 5-week old mice and male Wistar-strain 8 week old rats, five per group, were used as experimental animals. Each of the compounds was dissolved in saline and administered perorally, and the toxicity of the compound was assessed 24 hours after the administration.

Where only a bound is given, the exact number is not on record here.

As to `CN1Cc2nc(N3CCNCC3)ncc2C1=O` [Compound 604], the “Cells having neurites with a length at least twice the long diameter of cell/total number of cells” value in data set [1] (Table 3 Run No. 3, 0.3 mM, control 3.9 ± 0.3) was 8.6 ± 0.9%; in data set [1] (Table 3 Run No. 3, 1 mM, control 3.9 ± 0.3), 10.7 ± 1.3%. The “Average of the proportions” value in data set [2] worked out at 21.30%. Further, the “Number of dead animals/number of test animals” value with mice was 0/5. Moreover, in the data set on mice (1440 min), the “Presumed LD50” value is reported as greater than 1000 mg/kg p.o.
As to `CN1C(=O)Cc2cnc(N3CCNCC3)nc21` [Compound 408], the “Cells having neurites with a length at least twice the long diameter of cell/total number of cells” value amounted to 7.9 ± 1.8% in data set [1] (Table 3 Run No. 3, 0.01 mM, control 3.9 ± 0.3); 13.0 ± 1.2% in data set [1] (Table 3 Run No. 3, 0.03 mM, control 3.9 ± 0.3); 23.0 ± 1.7% in data set [1] (Table 3 Run No. 3, 0.05 mM, control 3.9 ± 0.3); 51.2 ± 1.5% in data set [1] (Table 3 Run No. 3, 0.1 mM, control 3.9 ± 0.3); 16.8 ± 2.7% in data set [1] (Table 3 Run No. 4, 0.05 mM, control 3.1 ± 0.2); 33.5 ± 2.7% in data set [1] (Table 3 Run No. 4, 0.1 mM, control 3.1 ± 0.2). The “Cells having neurites with a length at least twice the long diameter of cell/total number of cells” value in data set [1] (Table 3 Run No. 4, 0.2 mM, control 3.1 ± 0.2) is reported as 44.6 ± 3.1%; in data set [1] (Table 3 Run No. 7, 0.01 mM, control 2.5 ± 0.7), 6.2 ± 0.9%; in data set [1] (Table 3 Run No. 7, 0.1 mM, control 2.5 ± 0.7) it was 25.0 ± 2.7%; in data set [1] (Table 3 Run No. 7, 0.2 mM, control 2.5 ± 0.7) it was 44.5 ± 2.9%; in data set [1] (Table 3 first Run No. 5, 0.05 mM, no control given), 12.8 ± 1.8%; in data set [1] (Table 3 first Run No. 5, 0.1 mM, no control given), 23.5 ± 2.5%. Moreover, the “Average of the proportions” value in data set [2] is reported as 25.33%. Moreover, in the data set on mice (1000 mg/kg), the “Number of dead animals/number of test animals” value is reported as 0/5. For the same compound, the “Presumed LD50” value in the data set on mice was greater than 1000 mg/kg p.o.

Source of the values: patent US4959368A, “Therapeutic agent for neurological diseases” (Mitsui Petrochemical Industries Ltd., priority 1986, dated 1990).
